Assay results taken from US11065253B2, “Arylquinazolines” (Merck Patent GmbH, priority 2013, dated 2021).

tested on: phospho-serine 2056 DNA-PK in HCT116 cells; assay: DNA-PK phosphorylation at serine 2056 (cellular), ELISA in bleomycin-treated HCT116 cells; assay type: cell-based; details: Homo sapiens, HCT-116, 6 h, cellular; HCT116 cells, 10 μM bleomycin, six hours; read-out: IC50 pDNA-PK
Description: HCT116 cells were cultivated at 37° C. and 10% CO2 in MEM alpha medium with 10% of foetal calf serum and 2 mM glutamine. The cells were detached from the base of the culture vessels with the aid of trypsin/EDTA, centrifuged off in centrifuge tubes, taken up in fresh medium, and the cell density was determined. 100,000 cells were sown in 1 ml of culture medium per cavity of a 24-well cell culture plate and cultivated overnight. Next day, 10 μM bleomycin (DNA intercalator and inductor of DNA double-strand breaks) and test substances in fresh culture medium were added to the cells, and these were cultivated for a further six hours. […] The 96-well ELISA plates were subsequently treated with a detection antibody (Abcam ab79444: total DNA-PK) and a streptavidin-HRP conjugate. The development of the enzymatic reaction was carried out with the aid of a chemiluminescent reagent, the chemiluminescence was measured with the aid of a Mithras LB940. The signals with the phospho-DNA-PK-specific antibody were standardised to the signal with the antibody against the total protein DNA-PKc. […] The DMSO control was used as blank.

IC50 [nM]	SMILES
< 500	OC(c1ccc(F)c(-c2ncnc3cc(N4CCOCC4)ccc23)c1)c1nc(Cl)cnc1Cl (stereo not drawn) [Example 35, (3,6-Dichloro-pyrazin-2-yl)-[4-fluoro-3-(7-morpholin-4-yl-quinazolin-4-yl)phenyl]-methanol]
< 500	OC(c1cc(-c2ncnc3cc(N4CCOCC4)ccc23)c(F)cc1Cl)c1nccnc1Cl (stereo not drawn) [Example 64, [2-Chloro-4-fluoro-5-(7-morpholin-4-yl-quinazolin-4-yl)phenyl]-(3-chloropyrazin-2-yl)-methanol]
500 to 5000	Cc1nccnc1[C@@H](O)c1ccc(F)c(-c2ncnc3cc(N4CCOCC4)ccc23)c1 [Example 82, (S)-[4-Fluoro-3-(7-morpholin-4-yl-quinazolin-4-yl)-phenyl]-(3-methyl-pyrazin-2-yl)methanol]
500 to 5000	COc1ccc([C@@H](O)c2ccc(F)c(-c3ncnc4cc(N5CCOCC5)ccc34)c2)nn1 [Example 72, (S)-[4-Fluoro-3-(7-morpholin-4-yl-quinazolin-4-yl)phenyl]-(6-methoxypyridazin-3-yl)methanol]
500 to 5000	COc1ccc(C(OC)c2ccc(F)c(-c3ncnc4cc(N5CCOCC5)ccc34)c2)nn1 (stereo not drawn) [Example 73, 4-{2-Fluoro-5-[methoxy-(6-methoxy-pyridazin-3-yl)methyl]phenyl}-7-morpholin-4-yl-quinazoline]

same assay, conditions: Homo sapiens, HCT-116, cellular DNA-PK phosphorylation at serine 2056, HCT116 cells; read-out: IC50 pDNA-PK

SMILES	IC50 [nM]
Cc1cncnc1C(O)c1cc(-c2ncnc3cc(N4CCOCC4)ccc23)ccc1Cl (stereo not drawn) [Example 417, [2-Chloro-5-(7-morpholin-4-yl-quinazolin-4-yl)-phenyl]-(5-methyl-pyrimidin-4-yl)-methanol (Ena 2)]	500 to 5000
OC(c1cc(-c2ncnc3cc(N4CCOCC4)ccc23)ccc1Cl)c1ncnc2ccoc12 (stereo not drawn) [Example 414, [2-Chloro-5-(7-morpholin-4-yl-quinazolin-4-yl)-phenyl]furo[3,2-d}-pyrimidin-4-yl-methanol (Ena 2)]	< 500
OC(c1cc(-c2ncnc3cc(N4CCOCC4)ccc23)ccc1Cl)c1ncnc2occc12 (stereo not drawn) [Example 416, [2-Chloro-5-(7-morpholin-4-yl-quinazolin-4-yl)-phenyl]furo[2,3-d}-pyrimidin-4-yl-methanol]	500 to 5000

The remaining lines, values ahead:

IC50 [nM]	SMILES
< 500	OC(c1ccc(F)c(-c2ncnc3cc(N4CCOCC4)ccc23)c1)c1ncnc2ccoc12 (stereo not drawn) [Example 442, [4-Fluoro-3-(7-morpholin-4-yl-quinazolin-4-yl)-phenyl]furo[3,2-d}-pyrimidin-4-yl-methanol]
< 500	OC(c1cc(-c2ncnc3cc(N4CCOCC4)ccc23)c(F)cc1F)c1ncnc2ccsc12 (stereo not drawn) [Example 439, [2,4-Difluoro-5-(7-morpholin-4-yl-quinazolin-4-yl)-phenyl]thieno[3,2-d}-pyrimidin-4-yl-methanol]

same assay, conditions: Homo sapiens, HCT-116, phospho-serine 2056 DNA-PK, bleomycin-treated HCT116 cells; class symbols A-D; read-out: IC50 pDNA-PK

SMILES	IC50 [nM]
OC(c1cccc(-c2ncnc3cc(N4CCOCC4)sc23)c1)c1nccs1 (stereo not drawn) [Example 182, [3-(6-Morpholin-4-ylthieno[3,2-d}-pyrimidin-4-yl)-phenyl]thiazol-2-yl-methanol]	5000 to 10000
CCn1cc(C(O)c2cc(-c3ncnc4cc(N5CCOCC5)ccc34)c(F)cc2Cl)cn1 (stereo not drawn) [Example 202, [2-Chloro-4-fluoro-5-(7-morpholin-4-ylquinazolin-4-yl)-phenyl]-(1-ethyl-1H-pyrazol-4-yl)-methanol]	500 to 5000

Second part, the compound after the results:

IC50 [nM]	SMILES
5000 to 10000	OC(c1cccc(-c2ncnc3cc(N4CCOCC4)ccc23)c1)c1nccs1 (stereo not drawn) [Example 150, [3-(7-Morpholin-4-ylquinazolin-4-yl)-phenyl]thiazol-2-yl-methanol]
500 to 5000	CCOc1ccc(C(O)c2ccc(F)c(-c3ncnc4cc(N5CCOCC5)ccc34)c2)nn1 (stereo not drawn) [Example 134, (6-Ethoxy-pyridazin-3-yl)-[4-fluoro-3-(7-morpholin-4-yl-quinazolin-4-yl)-phenyl] methanol]

same assay, conditions: Homo sapiens, HCT-116, phospho-serine 2056 DNA-PK, bleomycin-treated HCT116 cells; read-out: IC50 pDNA-PK

SMILES	IC50 [nM]
COc1nccnc1C(C(N)=O)c1cc(-c2ncnc3cc(N4CCOCC4)ccc23)c(F)cc1Cl (stereo not drawn) [Example 320, 2-[2-Chloro-4-fluoro-5-(7-morpholin-4-yl-quinazolin-4-yl)-phenyl]-2-(3-methoxy-pyrazin-2-yl)acetamide]	500 to 5000
Cc1nccnc1[C@H](O)c1ccc(F)c(-c2ncnc3cc(N4CCOCC4)cc(F)c23)c1 [Example 248, (R)-[4-Fluoro-3-(5-fluoro-7-morpholin-4-ylquinazolin-4-yl)-phenyl]-(3-methyl-pyrazin-2-yl)-methanol]	< 500
OC(c1cc(-c2ncnc3cc(N4CCOCC4)ccc23)c(F)cc1Cl)c1nccn2cccc12 (stereo not drawn) [Example 359, [2-Chloro-4-fluoro-5-(7-morpholin-4-yl-quinazolin-4-yl)-phenyl]pyrrolo[1,2-a]-pyrazin-1-ylmethanol]	< 500
NC(=O)C(c1cccnc1)c1cc(-c2ncnc3cc(N4CCOCC4)ccc23)c(F)cc1F (stereo not drawn) [Example 294, 2-[2,4-Difluoro-5-(7-morpholin-4-yl-quinazolin-4-yl)-phenyl]-2-pyridin-3-ylacetamide]	10000 to 30000
COc1nccnc1C(C(N)=O)c1cc(-c2ncnc3cc(N4CCOCC4)cc(F)c23)c(F)cc1Cl (stereo not drawn) [Example 261, 2-[2-Chloro-4-fluoro-5-(5-fluoro-7-morpholin-4-yl-quinazolin-4-yl)-phenyl]-2-(3-methoxy-pyrazin-2-yl)acetamide]	500 to 5000

Other lines, results leading:

IC50 [nM]	SMILES
500 to 5000	O=c1[nH]nc(C(O)c2ccc(F)c(-c3ncnc4cc(N5CCOCC5)ccc34)c2)c2sccc12 (stereo not drawn) [Example 337, 7-[[4-Fluoro-3-(7-morpholino-quinazolin-4-yl)-phenyl]hydroxy-methyl]-5H-thieno-[2,3-d}pyridazin-4-one]
< 500	OC(c1ccc(F)c(-c2ncnc3cc(N4CCOCC4)ccc23)c1)c1ncnn2cccc12 (stereo not drawn) [Example 345, [4-Fluoro-3-(7-morpholin-4-yl-quinazolin-4-yl)-phenyl]pyrrolo[2,1-f]-[1,2,4]triazin-4-yl-methanol]
10000 to 30000	NC(=O)C(c1ccc(F)c(-c2ncnc3cc(N4CCOCC4)ccc23)c1)c1ncnn2cccc12 (stereo not drawn) [Example 299, 2-[4-Fluoro-3-(7-morpholin-4-yl-quinazolin-4-yl)-phenyl]-2-pyrrolo-[2,1-f][1,2,4]triazin-4-ylacetamide]
5000 to 10000	Cc1cncc(C(O)c2ccc(F)c(-c3ncnc4cc(N5CCOCC5)ccc34)c2)n1 (stereo not drawn) [Example 296, [4-Fluoro-3-(7-morpholin-4-yl-quinazolin-4-yl)-phenyl]-(6-methyl-pyrazin-2-yl)-methanol]
500 to 5000	Cc1cc(C(O)c2ccc(F)c(-c3ncnc4cc(N5CCOCC5)ccc34)c2)n(C)c(=O)c1 (stereo not drawn) [Example 340, 6-{[4-Fluoro-3-(7-morpholin-4-yl-quinazolin-4-yl)-phenyl]hydroxy-methyl}-1,4-dimethyl-1H-pyridin-2-one]

same assay, conditions: cellular DNA-PK phosphorylation at serine 2056, HCT116 cells; read-out: IC50 pDNA-PK

SMILES	IC50 [nM]
OC(c1cccnn1)c1cc(-c2ncnc3cc(N4CCOCC4)ccc23)ccc1Cl (stereo not drawn) [Example 479, [2-Chloro-5-(7-morpholin-4-yl-quinazolin-4-yl)-phenyl]pyridazin-3-yl-methanol]	< 500
Cc1nccnc1C(O)c1cc(-c2ncnc3cc(N4CCOCC4)ccc23)ccc1Cl (stereo not drawn) [Example 427, [2-Chloro-5-(7-morpholin-4-yl-quinazolin-4-yl)-phenyl]-(3-methyl-pyrazin-2-yl)-methanol (Ena 1)]	500 to 5000
COc1nccnc1C(O)c1cc(-c2ncnc3cc(N4CCOCC4)ccc23)c(F)cc1F (stereo not drawn) [Example 454]	< 500

The remaining lines, values ahead:

IC50 [nM]	SMILES
< 500	Cn1c(C(O)c2cc(-c3ncnc4cc(N5CCOCC5)ccc34)c(F)cc2Cl)cccc1=O (stereo not drawn) [Example 383, 6-{[2-Chloro-4-fluoro-5-(7-morpholin-4-yl-quinazolin-4-yl)-phenyl]hydroxy-methyl}-1-methyl-1H-pyridin-2-one (Ena 1)]
500 to 5000	OC(c1cc(-c2ncnc3cc(N4CCOCC4)ccc23)c(F)cc1F)c1ncnc2ccoc12 (stereo not drawn) [Example 446, [2,4-Difluoro-5-(7-morpholin-4-yl-quinazolin-4-yl)-phenyl]furo[3,2-d}-pyrimidin-4-yl-methanol]
< 500	Cc1cccnc1C(O)c1ccc(F)c(-c2ncnc3cc(N4CCOCC4)ccc23)c1 (stereo not drawn) [Example 472, [4-Fluoro-3-(7-morpholin-4-yl-quinazolin-4-yl)-phenyl]-(3-methyl-pyridin-2-yl)methanol]

same assay, conditions: cellular; HCT116 cells, 10 μM bleomycin, six hours; read-out: IC50 pDNA-PK

IC50 [nM]	SMILES
< 500	OC(c1ccc(F)c(-c2ncnc3cc(N4CCOCC4)sc23)c1)c1nccnc1Cl (stereo not drawn) [Example 37, (3-Chloropyrazin-2-yl)-[4-fluoro-3-(6-morpholin-4-ylthieno[3,2-d}pyrimidin-4-yl)phenyl]-methanol]
< 500	OC(c1ccc2nccn2n1)c1cc(-c2ncnc3cc(N4CCOCC4)ccc23)c(F)cc1F (stereo not drawn) [Example 51, [2,4-Difluoro-5-(7-morpholin-4-yl-quinazolin-4-yl)phenyl]-imidazo[1,2-b]pyridazin-6-ylmethanol]

same assay, conditions: phospho-serine 2056 DNA-PK, bleomycin-treated HCT116 cells; read-out: IC50 pDNA-PK

IC50 [nM]	SMILES
500 to 5000	OC(c1ccc(F)c(-c2ncnc3cc(N4CCOCC4)ccc23)c1)c1nnc2ccccn12 (stereo not drawn) [Example 343, [4-Fluoro-3-(7-morpholin-4-yl-quinazolin-4-yl)-phenyl]-[1,2,4]-triazolo[4,3-a]pyridin-3-ylmethanol (Ena 2)]
